Laboratory results taken from ChEMBL document CHEMBL5724914, “Linking interpersonal differences in gut microbiota composition and drug biotransformation activity” (2024).
Where a SMILES comes first, the peptide text is derived from it. [ ]: non-standard residue; d: D form. pGlu = O=C1CC[C@@H](C(=O)O)N1; Thz = O=C(O)[C@@H]1CSCN1

Legend:
[1] = human gut metagenome, 24 h, 2 µM
[2] = human gut metagenome, 24 h, 2 µM; remark: listed apart in the source
[3] = (§1) The drug is tested on Z-029 corresponding to rat gut metagenome with ENA study accession number: PRJEB37062 and ENA sample accession number: ERS12561828 for biotransformation under anaerobic condition. The drug concentrations were measured over 9 timepoints collected between 0 and 24 hours of incubation by liquid-chromatography-coupled mass spectrometry (LC–MS); conditions: 2 µM
[4] = human gut metagenome, 24 h, 2 µM; remark: listed apart in the source
[5] = human gut metagenome, 24 h, 2 µM; remark: listed apart in the source
[6] = as §1, with “Z-019” for “Z-029”, “ERS12561818” for “ERS12561828”; conditions: 2 µM
[7] = human gut metagenome, 24 h, 2 µM; remark: listed apart in the source
[8] = as §1, with “on WLS-038” for “on Z-029”, “to human” for “to rat”, “number: ERS12561745” for “number: ERS12561828”; conditions: 2 µM
[9] = as §1, with “on Z-002” for “on Z-029”, “to rabbit” for “to rat”, “number: ERS12561802” for “number: ERS12561828”; conditions: 2 µM
Note: call rule not given here.

In the case of `CC(O)(CS(=O)(=O)c1ccc(F)cc1)C(=O)Nc1ccc(C#N)c(C(F)(F)F)c1` (configuration not stated) [BICALUTAMIDE], the “Bacterial Biotransformation” value [1] is reported as “Compound NOT metabolized”, the “Bacterial Biotransformation” value [2] is reported as “Compound NOT metabolized” and the “Bacterial Biotransformation” value [3] is reported as “Compound NOT metabolized”. For the same compound, the “Bacterial Biotransformation” value [4] was “Compound NOT metabolized”, the “Bacterial Biotransformation” value [5] was “Compound NOT metabolized” and the “Bacterial Biotransformation” value [6] was “Compound NOT metabolized”. The “Bacterial Biotransformation” value [7] was “Compound NOT metabolized”, the “Bacterial Biotransformation” value [8] was “Compound NOT metabolized” and the “Bacterial Biotransformation” value [9] was “Compound NOT metabolized”.
With `O=C(O)COCCN1CCN(C(c2ccccc2)c2ccc(Cl)cc2)CC1` (configuration not stated) [CETIRIZINE] the “Bacterial Biotransformation” value [1] was “Compound metabolized”, the “Bacterial Biotransformation” value [2] was “Compound metabolized” and the “Bacterial Biotransformation” value [3] was “Compound NOT metabolized”. For the same compound, the “Bacterial Biotransformation” value [4] was “Compound metabolized”, the “Bacterial Biotransformation” value [5] was “Compound metabolized” and the “Bacterial Biotransformation” value [6] was “Compound NOT metabolized”. For the same compound, the “Bacterial Biotransformation” value [7] was “Compound metabolized”, the “Bacterial Biotransformation” value [8] was “Compound metabolized” and the “Bacterial Biotransformation” value [9] was “Compound metabolized”.
In the case of `C[C@@H]1C[C@H]2[C@@H]3CCC4=CC(=O)C=C[C@]4(C)[C@@]3(F)[C@@H](O)C[C@]2(C)[C@@]1(O)C(=O)CO` [DEXAMETHASONE], the “Bacterial Biotransformation” value [1] is reported as “Compound NOT metabolized”, the “Bacterial Biotransformation” value [2] is reported as “Compound NOT metabolized” and the “Bacterial Biotransformation” value [3] is reported as “Compound NOT metabolized”. For the same compound, the “Bacterial Biotransformation” value [4] was “Compound NOT metabolized”, the “Bacterial Biotransformation” value [5] was “Compound NOT metabolized” and the “Bacterial Biotransformation” value [6] was “Compound NOT metabolized”. For the same compound, the “Bacterial Biotransformation” value [7] was “Compound NOT metabolized”, the “Bacterial Biotransformation” value [8] was “Compound NOT metabolized” and the “Bacterial Biotransformation” value [9] was “Compound metabolized”.
In the case of `CCN1CCCC1CNC(=O)c1cc(S(N)(=O)=O)ccc1OC` (configuration not stated) [SULPIRIDE], the “Bacterial Biotransformation” value [1] is reported as “Compound metabolized”, the “Bacterial Biotransformation” value [2] is reported as “Compound NOT metabolized” and the “Bacterial Biotransformation” value [3] is reported as “Compound NOT metabolized”. For the same compound, the “Bacterial Biotransformation” value [4] was “Compound NOT metabolized”, the “Bacterial Biotransformation” value [5] was “Compound metabolized” and the “Bacterial Biotransformation” value [6] was “Compound NOT metabolized”. The “Bacterial Biotransformation” value [7] was “Compound NOT metabolized”, the “Bacterial Biotransformation” value [8] was “Compound NOT metabolized” and the “Bacterial Biotransformation” value [9] was “Compound metabolized”.
With `COc1cc2nc(N3CCN(C(=O)c4ccco4)CC3)nc(N)c2cc1OC` [PRAZOSIN] the “Bacterial Biotransformation” value [1] was “Compound metabolized”, the “Bacterial Biotransformation” value [2] was “Compound NOT metabolized” and the “Bacterial Biotransformation” value [3] was “Compound NOT metabolized”. The “Bacterial Biotransformation” value [4] was “Compound NOT metabolized”, the “Bacterial Biotransformation” value [5] was “Compound metabolized” and the “Bacterial Biotransformation” value [6] was “Compound NOT metabolized”. For the same compound, the “Bacterial Biotransformation” value [7] was “Compound NOT metabolized”, the “Bacterial Biotransformation” value [8] was “Compound NOT metabolized” and the “Bacterial Biotransformation” value [9] was “Compound NOT metabolized”.
For `CNC(=C[N+](=O)[O-])NCCSCc1ccc(CN(C)C)o1` [RANITIDINE], the “Bacterial Biotransformation” value [1] was “Compound NOT metabolized”, the “Bacterial Biotransformation” value [2] was “Compound NOT metabolized” and the “Bacterial Biotransformation” value [3] was “Compound metabolized”. The “Bacterial Biotransformation” value [4] was “Compound NOT metabolized”, the “Bacterial Biotransformation” value [5] was “Compound metabolized” and the “Bacterial Biotransformation” value [6] was “Compound metabolized”. The “Bacterial Biotransformation” value [7] was “Compound NOT metabolized”, the “Bacterial Biotransformation” value [8] was “Compound NOT metabolized” and the “Bacterial Biotransformation” value [9] was “Compound metabolized”.
With `Br.CN(C)CCCC1(c2ccc(F)cc2)OCc2cc(C#N)ccc21` (configuration not stated) [CITALOPRAM HYDROBROMIDE] the “Bacterial Biotransformation” value [1] was “Compound metabolized”, the “Bacterial Biotransformation” value [2] was “Compound NOT metabolized” and the “Bacterial Biotransformation” value [3] was “Compound NOT metabolized”. For the same compound, the “Bacterial Biotransformation” value [4] was “Compound metabolized”, the “Bacterial Biotransformation” value [5] was “Compound metabolized” and the “Bacterial Biotransformation” value [6] was “Compound NOT metabolized”. The “Bacterial Biotransformation” value [7] was “Compound NOT metabolized”, the “Bacterial Biotransformation” value [8] was “Compound NOT metabolized” and the “Bacterial Biotransformation” value [9] was “Compound metabolized”.
For `COc1ccc(CCN(C)CCCC(C#N)(c2ccc(OC)c(OC)c2)C(C)C)cc1OC` (configuration not stated), the “Bacterial Biotransformation” value [1] was “Compound metabolized”, the “Bacterial Biotransformation” value [2] was “Compound metabolized” and the “Bacterial Biotransformation” value [3] was “Compound NOT metabolized”. The “Bacterial Biotransformation” value [4] was “Compound metabolized”, the “Bacterial Biotransformation” value [5] was “Compound metabolized” and the “Bacterial Biotransformation” value [6] was “Compound NOT metabolized”. The “Bacterial Biotransformation” value [7] was “Compound metabolized”, the “Bacterial Biotransformation” value [8] was “Compound NOT metabolized” and the “Bacterial Biotransformation” value [9] was “Compound metabolized”.
With `C#C[C@]1(O)CC[C@H]2[C@@H]3CCC4=CC(=O)CC[C@@H]4[C@H]3CC[C@@]21CC` [LEVONORGESTREL] the “Bacterial Biotransformation” value [1] was “Compound metabolized”, the “Bacterial Biotransformation” value [2] was “Compound metabolized” and the “Bacterial Biotransformation” value [3] was “Compound NOT metabolized”. The “Bacterial Biotransformation” value [4] was “Compound metabolized”, the “Bacterial Biotransformation” value [5] was “Compound metabolized” and the “Bacterial Biotransformation” value [6] was “Compound metabolized”. For the same compound, the “Bacterial Biotransformation” value [7] was “Compound metabolized” and the “Bacterial Biotransformation” value [9] was “Compound metabolized”.
In the case of `CCCCCCOC(=O)/N=C(/N)c1ccc(NCc2nc3cc(C(=O)N(CCC(=O)OCC)c4ccccn4)ccc3n2C)cc1.CS(=O)(=O)O` [DABIGATRAN ETEXILATE MESYLATE], the “Bacterial Biotransformation” value [2] is reported as “Compound NOT metabolized”, the “Bacterial Biotransformation” value [3] is reported as “Compound NOT metabolized” and the “Bacterial Biotransformation” value [6] is reported as “Compound NOT metabolized”. The “Bacterial Biotransformation” value [7] was “Compound NOT metabolized” and the “Bacterial Biotransformation” value [9] was “Compound NOT metabolized”.
For `COC(=O)[C@H]1[C@H]2C[C@@H]3c4[nH]c5cc(OC)ccc5c4CCN3C[C@H]2C[C@@H](OC(=O)c2cc(OC)c(OC)c(OC)c2)[C@@H]1OC` [RESERPINE], the “Bacterial Biotransformation” value [2] was “Compound NOT metabolized”, the “Bacterial Biotransformation” value [3] was “Compound NOT metabolized” and the “Bacterial Biotransformation” value [5] was “Compound metabolized”. For the same compound, the “Bacterial Biotransformation” value [6] was “Compound NOT metabolized”, the “Bacterial Biotransformation” value [7] was “Compound NOT metabolized” and the “Bacterial Biotransformation” value [8] was “Compound NOT metabolized”. For the same compound, the “Bacterial Biotransformation” value [9] was “Compound NOT metabolized”.
In the case of `O=C1CC[C@@H](C(=O)N2CSC[C@H]2C(=O)O)N1` [PIDOTIMOD] ([pGlu]-[Thz]-OH), the “Bacterial Biotransformation” value [1] is reported as “Compound NOT metabolized”, the “Bacterial Biotransformation” value [3] is reported as “Compound NOT metabolized” and the “Bacterial Biotransformation” value [6] is reported as “Compound NOT metabolized”. The “Bacterial Biotransformation” value [7] was “Compound NOT metabolized”, the “Bacterial Biotransformation” value [8] was “Compound metabolized” and the “Bacterial Biotransformation” value [9] was “Compound NOT metabolized”.
For `c1ccc([C@H]2CN3CCSC3=N2)cc1` [LEVAMISOLE], the “Bacterial Biotransformation” value [1] was “Compound metabolized”, the “Bacterial Biotransformation” value [2] was “Compound metabolized” and the “Bacterial Biotransformation” value [3] was “Compound NOT metabolized”. The “Bacterial Biotransformation” value [5] was “Compound metabolized”, the “Bacterial Biotransformation” value [6] was “Compound NOT metabolized” and the “Bacterial Biotransformation” value [7] was “Compound metabolized”. The “Bacterial Biotransformation” value [8] was “Compound metabolized” and the “Bacterial Biotransformation” value [9] was “Compound metabolized”.
In the case of `OCCN1CCN(CCCN2c3ccccc3Sc3ccc(C(F)(F)F)cc32)CC1` [FLUPHENAZINE], the “Bacterial Biotransformation” value [1] is reported as “Compound metabolized”, the “Bacterial Biotransformation” value [2] is reported as “Compound metabolized” and the “Bacterial Biotransformation” value [3] is reported as “Compound NOT metabolized”. For the same compound, the “Bacterial Biotransformation” value [4] was “Compound metabolized”, the “Bacterial Biotransformation” value [5] was “Compound metabolized” and the “Bacterial Biotransformation” value [7] was “Compound metabolized”. The “Bacterial Biotransformation” value [8] was “Compound metabolized” and the “Bacterial Biotransformation” value [9] was “Compound metabolized”.
For `O=c1[nH]c2ccccc2n1CCCN1CCC(n2c(=O)[nH]c3cc(Cl)ccc32)CC1` [DOMPERIDONE], the “Bacterial Biotransformation” value [1] was “Compound NOT metabolized”, the “Bacterial Biotransformation” value [3] was “Compound NOT metabolized” and the “Bacterial Biotransformation” value [4] was “Compound NOT metabolized”. The “Bacterial Biotransformation” value [5] was “Compound NOT metabolized”, the “Bacterial Biotransformation” value [6] was “Compound NOT metabolized” and the “Bacterial Biotransformation” value [7] was “Compound NOT metabolized”. For the same compound, the “Bacterial Biotransformation” value [8] was “Compound NOT metabolized” and the “Bacterial Biotransformation” value [9] was “Compound NOT metabolized”.
